Source: patent US8008291B2 (Mimetica Pty Ltd, priority 2008, dated 2011)
pIC50: −log10 of the molar value.

Target: T1, human MC5R (hMC5R) (Homo sapiens, UniProt P33032)
T1 construct: purchased Perkin Elmer RBXMC5M400UA
Experiment: Human MC5R radioligand binding assay (membranes, [125I] NDP-MSH displacement)
Conditions: hMC5R binding; tested as trifluoroacetate or hydrochloride salts, or free bases; read-out: MC5R radioligand IC50
Method in brief: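 Frozen human MC5R membranes incubated with test compound and in-house iodogen-labeled, HPLC-purified [125I]NDP-MSH for 1 hr at 37° C. Binding measured as displacement of the radioligand.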

T1 sequence (P33032 whole entry): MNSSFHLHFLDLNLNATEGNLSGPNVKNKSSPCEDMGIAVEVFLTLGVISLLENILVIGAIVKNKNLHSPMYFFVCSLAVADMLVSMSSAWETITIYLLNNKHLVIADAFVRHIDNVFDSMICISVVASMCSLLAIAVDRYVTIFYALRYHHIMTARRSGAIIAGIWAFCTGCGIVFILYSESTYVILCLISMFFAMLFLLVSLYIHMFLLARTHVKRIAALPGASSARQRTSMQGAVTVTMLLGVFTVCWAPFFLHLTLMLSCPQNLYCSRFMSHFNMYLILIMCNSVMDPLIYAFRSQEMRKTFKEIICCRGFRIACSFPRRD

| Structure (SMILES) | pIC50 |
| --- | --- |
| N=C(N)NCCC[C@@H]1N[C@H](CNC(=O)c2cnc3ccccc3c2)CCN(CC2CCCCC2)C1=O [Compound 482, N-(((3S,5S)-1-(cyclohexylmethyl)-3-(3-guanidinopropyl)-2-oxo-1,4-diazepan-5-yl)methyl)quinoline-3-carboxamide] | > 6.00 |
| CC[C@H](CN1CC[C@@H](CNC(=O)c2ccc(Cl)c(Cl)c2)N[C@@H](CCN2CCC(F)(F)CC2)C1=O)c1ccccc1 [Compound 483, 3,4-dichloro-N-(((3S,5S)-3-(2-(4,4-difluoropiperidin-1-yl)ethyl)-2-oxo-1-((S)-2-phenylbutyl)-1,4-diazepan-5-yl)methyl)benzamide] | > 7.00 |
| CC[C@H](CN1CC[C@@H](CNC(=O)c2ccc(Cl)c(Cl)c2)N[C@@H](CCN2CCCC(F)(F)C2)C1=O)c1ccccc1 [Compound 484, 3,4-dichloro-N-(((3S,5S)-3-(2-(3,3-difluoropiperidin-1-yl)ethyl)-2-oxo-1-((S)-2-phenylbutyl)-1,4-diazepan-5-yl)methyl)benzamide] | > 6.00 |
| CC[C@H](CN1CC[C@@H](CNCc2ccc(Cl)c(Cl)c2)N[C@@H](CCN2CCCCC2)C1=O)c1ccccc1 [Compound 485, (3S,5S)-5-((3,4-dichlorobenzylamino)methyl)-1-((S)-2-phenylbutyl)-3-(2-(piperidin-1-yl)ethyl)-1,4-diazepan-2-one] | > 7.00 |
| CCC(CN1CC[C@@H](CNC(=O)c2ccc(Cl)c(Cl)c2)N[C@@H](CCN2CCCCC2)C1=O)C1CC1 (stereo partly drawn) [Compound 486, 3,4-dichloro-N-(((3S,5S)-1-(2-cyclopropylbutyl)-2-oxo-3-(2-(piperidin-1-yl)ethyl)-1,4-diazepan-5-yl)methyl)benzamide] | > 6.00 |
| CCC(CN1CC[C@@H](CNC(=O)c2ccc3cc(Cl)ccc3c2)N[C@@H](CCN)C1=O)C1CC1 (stereo partly drawn) [Compound 487, N-(((3S,5S)-3-(2-aminoethyl)-1-(2-cyclopropylbutyl)-2-oxo-1,4-diazepan-5-yl)methyl)-6-chloro-2-naphthamide] | > 6.00 |
| CCC(CN1CC[C@@H](CNC(=O)c2ccc3cc(Cl)ccc3c2)N[C@@H](CCN2CCCCC2)C1=O)C1CC1 (stereo partly drawn) [Compound 488, 6-chloro-N-(((3S,5S)-1-(2-cyclopropylbutyl)-2-oxo-3-(2-(piperidin-1-yl)ethyl)-1,4-diazepan-5-yl)methyl)-2-naphthamide] | > 7.00 |
| CC[C@H](CN1CC[C@@H](CNC(=O)c2ccc(Cl)c(Cl)c2)N[C@@H](CCN2C(=O)CCC2=O)C1=O)c1ccccc1 [Compound 489, 3,4-dichloro-N-(((3S,5S)-3-(2-(2,5-dioxopyrrolidin-1-yl)ethyl)-2-oxo-1-((S)-2-phenylbutyl)-1,4-diazepan-5-yl)methyl)benzamide] | > 5.00 |
| CC[C@H](CN1CC[C@@H](CNC(=O)c2ccc3cc(Cl)ccc3c2)N[C@@H](CCCNC(N)=O)C1=O)c1ccccc1 [Compound 490, 6-chloro-N-(((3S,5S)-2-oxo-1-((S)-2-phenylbutyl)-3-(3-ureidopropyl)-1,4-diazepan-5-yl)methyl)-2-naphthamide] | > 6.00 |
| CC[C@H](CN1CC[C@@H](CNC(=O)c2ccc(Cl)c(Cl)c2)N[C@@H](CCNC(C)C(F)(F)F)C1=O)c1ccccc1 (stereo partly drawn) [Compound 491, 3,4-dichloro-N-(((3S,5S)-2-oxo-1-((S)-2-phenylbutyl)-3-(2-(1,1,1-trifluoropropan-2-ylamino)ethyl)-1,4-diazepan-5-yl)methyl)benzamide] | > 6.00 |
| CC[C@H](CN1CC[C@@H](CNC(=O)c2ccc(Cl)c(Cl)c2)N[C@@H](CCN2C(=O)CC(C)(C)C2=O)C1=O)c1ccccc1 [Compound 492, 3,4-dichloro-N-(((3S,5S)-3-(2-(3,3-dimethyl-2,5-dioxopyrrolidin-1-yl)ethyl)-2-oxo-1-((S)-2-phenylbutyl)-1,4-diazepan-5-yl)methyl)benzamide] | > 5.00 |
| CC[C@H](CN1CC[C@@H](CNC(=O)c2ccc3cc(Cl)ccc3c2)N[C@@H](CCN2CCCCCC2)C1=O)c1ccccc1 [Compound 493, N-(((3S,5S)-3-(2-(azepan-1-yl)ethyl)-2-oxo-1-((S)-2-phenylbutyl)-1,4-diazepan-5-yl)methyl)-6-chloro-2-naphthamide] | > 7.00 |
| CC[C@H](CN1CC[C@@H](CNC(=O)c2ccc3cc(Cl)ccc3c2)N[C@@H](CCNC(=O)NC(C)C)C1=O)c1ccccc1 [Compound 494, 6-chloro-N-(((3S,5S)-3-(2-(3-isopropylureido)ethyl)-2-oxo-1-((S)-2-phenylbutyl)-1,4-diazepan-5-yl)methyl)-2-naphthamide] | > 6.00 |
| CC[C@H](CN1CC[C@@H](CNC(=O)c2ccc(-c3ccccc3)cc2)N[C@@H](CCN2CCCCC2)C1=O)c1ccccc1 [Compound 495, N-(((3S,5S)-2-oxo-1-((S)-2-phenylbutyl)-3-(2-(piperidin-1-yl)ethyl)-1,4-diazepan-5-yl)methyl)biphenyl-4-carboxamide] | > 7.00 |
| CC[C@H](CN1CC[C@@H](CNC(=O)c2csc(-c3ccccc3)n2)N[C@@H](CCN2CCCCC2)C1=O)c1ccccc1 [Compound 496, N-(((3S,5S)-2-oxo-1-((S)-2-phenylbutyl)-3-(2-(piperidin-1-yl)ethyl)-1,4-diazepan-5-yl)methyl)-2-phenylthiazole-4-carboxamide] | > 7.00 |
| CC[C@H](CN1CC[C@@H](CNC(=O)c2ccccc2-c2ccc(Cl)cc2)N[C@@H](CCN2CCCCC2)C1=O)c1ccccc1 [Compound 497, 4′-chloro-N-(((3S,5S)-2-oxo-1-((S)-2-phenylbutyl)-3-(2-(piperidin-1-yl)ethyl)-1,4-diazepan-5-yl)methyl)biphenyl-2-carboxamide] | > 7.00 |
| CC[C@H](CN1CC[C@@H](CNC(=O)c2ccc3cc(Cl)ccc3c2)N[C@@H](CCN(C(C)=O)C(C)C)C1=O)c1ccccc1 [Compound 498, 6-chloro-N-(((3S,5S)-3-(2-(N-isopropylacetamido)ethyl)-2-oxo-1-((S)-2-phenylbutyl)-1,4-diazepan-5-yl)methyl)-2-naphthamide] | > 6.00 |
| CC[C@H](CN1CC[C@@H](CNC(=O)c2ccc3cc(Cl)ccc3c2)N[C@@H](CNC(C)C)C1=O)c1ccccc1 [Compound 499, 6-chloro-N-(((3S,5S)-3-((isopropylamino)methyl)-2-oxo-1-((S)-2-phenylbutyl)-1,4-diazepan-5-yl)methyl)-2-naphthamide] | > 7.00 |
| CC[C@H](CN1CC[C@@H](CNC(=O)c2ccc3cc(Cl)ccc3c2)N[C@@H](CNC(=N)N)C1=O)c1ccccc1 [Compound 500, 6-chloro-N-(((3S,5S)-3-(guanidinomethyl)-2-oxo-1-((S)-2-phenylbutyl)-1,4-diazepan-5-yl)methyl)-2-naphthamide] | > 7.00 |
| NCC[C@@H]1N[C@H](CNC(=O)c2ccc(Cl)c(Cl)c2)CCN(Cc2ccc(Cl)cc2Cl)C1=O [Compound 502, N-(((3S,5S)-3-(2-aminoethyl)-1-(2,4-dichlorobenzyl)-2-oxo-1,4-diazepan-5-yl)methyl)-3,4-dichlorobenzamide] | > 6.00 |
| O=C(NC[C@@H]1CCN(Cc2ccc(Cl)cc2Cl)C(=O)[C@H](CCN2CCCCC2)N1)c1ccc(Cl)c(Cl)c1 [Compound 503, 3,4-dichloro-N-(((3S,5S)-1-(2,4-dichlorobenzyl)-2-oxo-3-(2-(piperidin-1-yl)ethyl)-1,4-diazepan-5-yl)methyl)benzamide] | > 6.00 |
| CS(=O)(=O)NCC[C@@H]1N[C@H](CNC(=O)c2ccc(Cl)c(Cl)c2)CCN(Cc2ccc(Cl)cc2Cl)C1=O [Compound 504, 3,4-dichloro-N-(((3S,5S)-1-(2,4-dichlorobenzyl)-3-(2-(methylsulfonamido)ethyl)-2-oxo-1,4-diazepan-5-yl)methyl)benzamide] | > 5.00 |
| Cc1ccc(S(=O)(=O)NCC[C@@H]2N[C@H](CNC(=O)c3ccc(Cl)c(Cl)c3)CCN(Cc3ccc(Cl)cc3Cl)C2=O)cc1 [Compound 505, 3,4-dichloro-N-(((3S,5S)-1-(2,4-dichlorobenzyl)-3-(2-(4-methylphenylsulfonamido)ethyl)-2-oxo-1,4-diazepan-5-yl)methyl)benzamide] | > 5.00 |
| CC(C)[C@H](N)C(=O)NCC[C@@H]1N[C@H](CNC(=O)c2ccc(Cl)c(Cl)c2)CCN(Cc2ccc(Cl)cc2Cl)C1=O [Compound 506, N-(((3S,5S)-3-(2-((S)-2-amino-3-methylbutanamido)ethyl)-1-(2,4-dichlorobenzyl)-2-oxo-1,4-diazepan-5-yl)methyl)-3,4-dichlorobenzamide] | > 5.00 |
| NCC[C@@H]1N[C@H](CNC(=O)c2ccc3cc(Cl)ccc3c2)CCN(Cc2ccc(Cl)cc2Cl)C1=O [Compound 507, N-(((3S,5S)-3-(2-aminoethyl)-1-(2,4-dichlorobenzyl)-2-oxo-1,4-diazepan-5-yl)methyl)-6-chloro-2-naphthamide] | > 7.00 |
| O=C(NC[C@@H]1CCN(Cc2ccc(Cl)cc2Cl)C(=O)[C@H](CCN2CCCCC2)N1)c1ccc2cc(Cl)ccc2c1 [Compound 508, 6-chloro-N-(((3S,5S)-1-(2,4-dichlorobenzyl)-2-oxo-3-(2-(piperidin-1-yl)ethyl)-1,4-diazepan-5-yl)methyl)-2-naphthamide] | > 7.00 |
| CCC(CN1CC[C@@H](CNC(=O)c2ccc3cc(Cl)ccc3c2)N[C@@H](CCN)C1=O)c1ccsc1 (stereo partly drawn) [Compound 509, N-(((3S,5S)-3-(2-aminoethyl)-2-oxo-1-(2-(thiophen-3-yl)butyl)-1,4-diazepan-5-yl)methyl)-6-chloro-2-naphthamide] | > 7.00 |
| CC[C@@H](CN1CC[C@@H](CNC(=O)c2ccc3cc(Cl)ccc3c2)N[C@@H](CCN2CCCCC2)C1=O)c1ccsc1 [Compound 510, 6-chloro-N-(((3S,5S)-2-oxo-3-(2-(piperidin-1-yl)ethyl)-1-((R)-2-(thiophen-3-yl)butyl)-1,4-diazepan-5-yl)methyl)-2-naphthamide] | > 7.00 |
| CC[C@H](CN1CC[C@@H](CNC(=O)c2ccc3cc(Cl)ccc3c2)N[C@@H](CCN2CCCCC2)C1=O)c1ccsc1 [Compound 511, 6-chloro-N-(((3S,5S)-2-oxo-3-(2-(piperidin-1-yl)ethyl)-1-((S)-2-(thiophen-3-yl)butyl)-1,4-diazepan-5-yl)methyl)-2-naphthamide] | > 8.00 |
